Experiments:
IL-1β = experiment: Capsaicine-induced IL-1β release in co-culture of keratinocytes and human sensory neurons; assay type: cell-based; details: FIG. 3
Protocol: (§1) To examine whether an F230 extract prepared as described in Example 1 is able to inhibit IL-1β and IL-8 expression, a co-culture system of keratinocytes and human sensory neurons was used. Human sensory neurons were derived from human induced pluripotent stem cells (hiPS cells). hiPS cells were obtained by transfecting human fibroblasts which were reprogrammed into […]. hiPS cells were plated in 6 wells plates coated by a thin layer of Matrigel® (Corning GmbH, Kaiserslautern, Germany) at a density of 250,000 cells in a medium composed by DMEM-F12 (Pan-Biotech, Aidenbach, Germany) supplemented with 10% Knockout Serum Replacement (Life technologies, Carlsbad, USA), 0.1 μM retinoic acid (Sigma Aldrich, Taufkirchen, Germany), 1% P/S (Pan-Biotech) and a cocktail of inhibitors. The culture was maintained for 6 days at 37° C. and 5% of CO2.
(§2) After 6 days of differentiation, hiPS cells were plated at a density of 20,000 cells in the differentiation medium using 96-well plates that had been coated with a thin layer of Matrigel®. […] Samples were evaluated by cytometry flux (BD Bioscience) and compared to non-treated controls.

IL-8 = experiment: Capsaicine-induced IL-8 release in co-culture of keratinocytes and human sensory neurons; assay type: cell-based; details: FIG. 4
Protocol: as §1, §2

[1] = co-culture, capsaicine as stimulus, compared to non-treated controls
[2] = co-culture of keratinocytes and human sensory neurons, 1 hour capsaicin stimulation, supernatant

SMILES	IL-1β expression on incubation with capsaicine alone (IL-1β; [1])	IL-8 expression on incubation with capsaicine alone (IL-8; [1])	inhibition of capsaicine-induced IL-1β release (IL-1β; [2])	inhibition of capsaicine-induced IL-8 release (IL-8; [2])
COc1cc(CNC(=O)CCCC/C=C/C(C)C)ccc1O [capsaicine]	strongly induced IL-1β expression	strongly induced IL-8 expression	–	–
Oc1cc2c(cc1O)CN(C(=S)NCCc1ccc(Cl)cc1)CCC2 [capsazepine]	–	–	completely abrogates IL-1β release	significantly reduced IL-8 release

Source: patent US12396942B2, “Seed extract of Annona cherimola” (CLR-Chemisches Laboratorium Dr. Kurt Richter GmbH, priority 2019, dated 2025)
